Among the data in patent publication US20110144160A1, “Antagonists of Prostaglandin D2 Receptors” (Amira Pharmaceuticals, Inc., priority 2008, published 2011) are IC50 values, retold here.

For one test, the target named is T1, human DP2 receptor (Homo sapiens, UniProt Q9Y5Y4).
T1 construct: expressed in transfected cells
T1 sequence (Q9Y5Y4 1-395): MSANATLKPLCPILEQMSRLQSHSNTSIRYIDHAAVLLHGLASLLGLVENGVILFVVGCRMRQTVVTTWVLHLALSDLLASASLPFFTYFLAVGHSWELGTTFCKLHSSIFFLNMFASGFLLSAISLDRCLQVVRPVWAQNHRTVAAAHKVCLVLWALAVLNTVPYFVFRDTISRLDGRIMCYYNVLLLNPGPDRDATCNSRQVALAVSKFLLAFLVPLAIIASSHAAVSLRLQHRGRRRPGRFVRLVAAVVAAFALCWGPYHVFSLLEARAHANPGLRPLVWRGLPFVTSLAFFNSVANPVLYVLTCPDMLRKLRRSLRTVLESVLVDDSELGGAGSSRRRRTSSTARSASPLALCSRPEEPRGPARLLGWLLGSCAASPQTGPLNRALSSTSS
The experiment in a line: DP2/CRTH2 binding assay ([3H]PGD2 radioligand). The settings on record: membranes of HEK293 cells expressing recombinant human DP2, 1 nM [3H]PGD2; read-out: hDP2. How it is done:
The ability of a compound to bind to the human DP2 receptor is assessed via a radioligand binding assay using [^3H]PGD2. HEK293 cells stably expressing recombinant human DP2 are resuspended in 10 mM Hepes, 7.4 containing 1 mM DTT, lysed and centrifuged at 75,000×g to pellet the membranes. The membranes are resuspended in 10 mM Hepes, 7.4 containing 1 mM DTT and 10% glycerol to approximately 5 mg protein/ml. Membranes (2-10 μg protein/well) are incubated in 96-well plates with 1 nM [^3H]PGD2 and test compound in Assay Buffer (50 mM Hepes, 10 mM MnCl2, 1 mM EDTA, plus or minus 0.2% human serum albumin, pH 7.4) for 60 minutes at room temperature. The reactions are terminated by rapid filtration through Whatman GF/C glass fibre filter plates. The filter plates were pre-soaked in 0.33% polythylenimine for 30 minutes at room temperature then washed in Wash Buffer (50 mM Hepes, 0.5 M NaCl pH 7.4) prior to harvesting. After harvesting, the filter plates are washed 3 times with 1 ml cold Wash Buffer then dried. Scintillant is then added to the plates and the radioactivity retained on the filters is determined on a Packard TopCount (Perkin Elmer). Specific binding is determined as total radioactive binding minus non-specific binding in the presence of 10 μM PGD2. IC50s were determined using GraphPad prism analysis of drug titration curves.

A further test addresses T2, human DP1 receptor (Homo sapiens, UniProt Q13258).
T2 construct: tissue Biological Specialty Corporation; host or cells: human platelets, membrane preparation
T2 sequence (Q13258 1-359): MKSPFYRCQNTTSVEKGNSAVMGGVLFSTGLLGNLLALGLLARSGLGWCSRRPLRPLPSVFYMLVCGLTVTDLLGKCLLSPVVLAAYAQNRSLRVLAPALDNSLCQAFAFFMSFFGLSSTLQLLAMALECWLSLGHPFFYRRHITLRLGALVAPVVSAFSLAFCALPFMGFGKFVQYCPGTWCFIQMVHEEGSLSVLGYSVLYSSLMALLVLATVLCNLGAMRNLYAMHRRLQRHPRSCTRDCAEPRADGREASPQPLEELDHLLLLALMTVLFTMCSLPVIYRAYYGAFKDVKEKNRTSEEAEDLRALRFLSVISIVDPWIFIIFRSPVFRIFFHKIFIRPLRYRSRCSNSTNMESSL
Description: DP1 binding assay ([3H]BWA868C radioligand). The settings on record: human platelet membranes, 2 nM [3H]BWA868C; read-out: hDP1. How it is done: The ability of a compound to bind to the human DP1 receptor was evaluated via a radioligand membrane binding assay using the DP1 selective synthetic ligand [^3H]BWA868C. Packed human platelets (Biological Specialty Corporation), were resuspended in 6 volumes of Hepes/HBSS buffer (10 mM Hepes, 1 mM DTT in Hanks Balanced Salt Solution (HBSS), lysed and centrifuged at 75,000×g to pellet the membranes. Membranes were resuspended in Hepes/HBSS buffer to approximately 12 mg protein/ml. Membranes (20 μg protein/well) are incubated in 96-well plates with 2 nM [^3H]BWA868C and test compound in Assay Buffer (50 mM Hepes, 10 mM MnCl2, 1 mM EDTA, plus or minus 0.2% human serum albumin, pH 7.4) for 60 minutes at room temperature. The reactions are terminated by rapid filtration through Whatman GF/C glass fibre filter plates. The filter plates were pre-soaked in 0.33% polethylenimine for 30 minutes at room temperature then washed in Wash Buffer (50 mM Hepes, 0.5 M NaCl pH 7.4) prior to harvesting. After harvesting, the filter plates are washed 3 times with 1 ml cold Wash Buffer then dried. Scintillant is then added to the plates and the radioactivity retained on the filters is determined on a Packard TopCount (Perkin Elmer). Specific binding is determined as total radioactive binding minus non-specific binding in the presence of 10 μM BW A868C. IC50s were determined using GraphPad prism analysis of drug titration curves.

SMILES strings stand for the structures.

As to `COc1ccc(CC(=O)O)cc1Oc1ccc(NC(=O)c2ccc(Cl)cc2)cc1CSCC(F)(F)F` [Compound 1, {3-[4-(4-Chloro-benzoylamino)-2-(2,2,2-trifluoro-ethylsulfanylmethyl)-phenoxy]-4-methoxy-phenyl}-acetic acid], the results for the IC50 at human DP2 receptor and at human DP1 receptor were below 0.3 µM and above 1 µM, respectively.

For the compound `COc1ccc(CC(=O)O)cc1Oc1ccc(NC(=O)CC(C)(C)C)cc1CSC(C)(C)C` [Compound 37, {3-[2-tert-Butylsulfanylmethyl-4-(3,3-dimethyl-butyrylamino)-phenoxy]-4-methoxy-phenyl}-acetic acid], the IC50 on human DP2 receptor is below 0.3 µM.

Regarding `COc1ccc(CC(=O)O)cc1Oc1ccc(N2CCOC2=O)cc1CSCC(F)(F)F` [Compound 38, {4-Methoxy-3-[4-(2-oxo-oxazolidin-3-yl)-2-(2,2,2-trifluoro-ethylsulfanylmethyl)-phenoxy}-phenyl]-acetic acid], on human DP2 receptor, the IC50 fell in the range of 0.3 to 1 µM.

`COc1ccc(CC(=O)O)cc1Oc1ccc(C(=O)NC(C)(C)C)cc1CSC(C)(C)C` [Compound 39, [3-(4-tert-Butylcarbamoyl-2-tert-butylsulfanylmethyl-phenoxy)-4-methoxy-phenyl]-acetic acid]: at human DP2 receptor, the IC50 was below 0.3 µM.

Consider `COc1ccc(CC(=O)O)cc1Oc1ccc(C(=O)NCC(=O)c2ccccc2)cc1CSC(C)(C)C` [Compound 40, {3-[2-tert-butylsulfanylmethyl-4-(2-oxo-2-phenyl-ethylcarbamoyl)-phenoxy]-4-methoxy-phenyl}-acetic acid], for which, at human DP2 receptor, the IC50 is below 0.3 µM.

Consider `COc1ccc(CC(=O)O)cc1Oc1ccc(C(=O)NC(C)(C)Cc2ccc(F)cc2)cc1CSC(C)(C)C` [Compound 41, (3-{2-tert-butylsulfanylmethyl-4-[2-(4-fluoro-phenyl)-1,1-dimethyl-ethylcarbamoyl]-phenoxy}-4-methoxy-phenyl)-acetic acid], for which, on human DP2 receptor, the IC50 was below 0.3 µM.

For `COc1ccc(CC(=O)O)cc1Oc1ccc(C(=O)N2CCCCC2)cc1CSC(C)(C)C` [Compound 42, {3-[2-tert-butylsulfanylmethyl-4-(piperidine-1-carbonyl)-phenoxy]-4-methoxy-phenyl}-acetic acid], the IC50 on human DP2 receptor is above 1 µM.

As for `COc1ccc(NC(=O)c2ccc(Oc3cc(CC(=O)O)ccc3OC)c(CSC(C)(C)C)c2)cn1` [Compound 43, {3-[2-tert-butylsulfanylmethyl-4-(6-methoxy-pyridin-3-ylcarbamoyl)-phenoxy]-4-methoxy-phenyl}-acetic acid], the IC50 at human DP2 receptor is below 0.3 µM.

For the compound `COc1ccc(CC(=O)O)cc1Oc1ccc(C(=O)NCC(F)(F)F)cc1CSC(C)(C)C` [Compound 44, {3-[2-tert-butylsulfanylmethyl-4-(2,2,2-trifluoro-ethylcarbamoyl)-phenoxy]-4-methoxy-phenyl}-acetic acid], the IC50 at human DP2 receptor was below 0.3 µM.

For the compound `COc1ccc(CC(=O)O)cc1Oc1ccc(C(=O)N(C)C(C)C)cc1CSC(C)(C)C` [Compound 45, {3-[2-tert-butylsulfanylmethyl-4-(isopropyl-methyl-carbamoyl)-phenoxy]-4-methoxy-phenyl}-acetic acid], the IC50 on human DP2 receptor was above 1 µM.

Take `COc1ccc(CC(=O)O)cc1Oc1ccc(C(=O)NCC(C)(C)C)cc1CSC(C)(C)C` [Compound 46, {3-[2-tert-butylsulfanylmethyl-4-(2,2-dimethyl-propylcarbamoyl)-phenoxy]-4-methoxy-phenyl}-acetic acid]: the IC50 at human DP2 receptor is 0.3 to 1 µM.

Regarding `CC(C)(C)SCc1cc(NC(=O)C(C)(C)C)ccc1Oc1cc(Cl)cc(CC(=O)O)c1` [Compound 47, {3-[2-tert-Butylsulfanylmethyl-4-(2,2-dimethyl-propionylamino)-phenoxy]-5-chloro-phenyl}-acetic acid], the IC50 on human DP2 receptor is below 0.3 µM.

As for `CC(C)(C)C(=O)Nc1ccc(Oc2cc(Cl)cc(CC(=O)O)c2)c(CS(=O)(=O)C(C)(C)C)c1` [Compound 48, {3-Chloro-5-[4-(2,2-dimethyl-propionylamino)-2-(2-methyl-propane-2-sulfonylmethyl)-phenoxy]-phenyl}-acetic acid], on human DP2 receptor, the IC50 was below 0.3 µM.

As to `CC(C)(C)C(=O)Nc1ccc(Oc2cc(CC(=O)O)ccc2OC(F)F)c(CSCC(F)(F)F)c1` [Compound 49, {4-Difluoromethoxy-3-[4-(2,2-dimethyl-propionylamino)-2-(2,2,2-trifluoro-ethylsulfanylmethyl)-phenoxy]-phenyl}-acetic acid], the IC50 on human DP2 receptor was below 0.3 µM.

Turning to `CC(C)(C)C(=O)Nc1ccc(Oc2cc(CC(=O)O)ccc2OC(F)F)c(CS(=O)(=O)CC(F)(F)F)c1` [Compound 50, {4-Difluoromethoxy-3-[4-(2,2-dimethyl-propionylamino)-2-(trifluoro-ethanesulfonylmethyl)-phenoxy]-phenyl}-acetic acid], on human DP2 receptor, the IC50 is below 0.3 µM.

On to `Cc1ccc(CC(=O)O)cc1Oc1ccc(NC(=O)C(C)(C)C)cc1CSCC(F)(F)F` [Compound 51, {3-[4-(2,2-Dimethyl-propionylamino)-2-(2,2,2-trifluoro-ethylsulfanylmethyl)-phenoxy]-4-methyl-phenyl}-acetic acid], for which, on human DP2 receptor, the IC50 was below 0.3 µM.

Turning to `CC(C)SCc1cc(NC(=O)C(C)(C)C)ccc1Oc1cc(CC(=O)O)ccc1Cl` [Compound 52, {4-Chloro-3-[4-(2,2-dimethyl-propionylamino)-2-isopropylsulfanylmethyl-phenoxy]-phenyl}-acetic acid], the IC50 on human DP2 receptor is below 0.3 µM.

Consider `CC(C)(C)C(=O)Nc1ccc(Oc2cc(CC(=O)O)ccc2Cl)c(CSCC(F)(F)F)c1` [Compound 53, {4-Chloro-3-[4-(2,2-dimethyl-propionylamino)-2-(2,2,2-trifluoro-ethylsulfanylmethyl)-phenoxy]-phenyl}-acetic acid], for which the IC50 on human DP2 receptor was below 0.3 µM.

For the compound `CC(C)SCc1cc(NC(=O)C(C)(C)C)ccc1Oc1cc(CC(=O)O)cc(C(F)(F)F)c1` [Compound 54, {3-[4-(2,2-Dimethyl-propionylamino)-2-isopropylsulfanylmethyl-phenoxy]-5-trifluoromethyl-phenyl}-acetic acid], on human DP2 receptor, the IC50 was below 0.3 µM.

With `C=Cc1ccc(CC(=O)O)cc1Oc1ccc(NC(=O)C(C)(C)C)cc1CSCC(F)(F)F` [Compound 55, {3-[4-(2,2-Dimethyl-propionylamino)-2-(2,2,2-trifluoro-ethylsulfanylmethyl)-phenoxy]-4-vinyl-phenyl}-acetic acid], the IC50 at human DP2 receptor is below 0.3 µM.

With `CCc1ccc(CC(=O)O)cc1Oc1ccc(NC(=O)C(C)(C)C)cc1CSCC(F)(F)F` [Compound 56, {3-[4-(2,2-Dimethyl-propionylamino)-2-(2,2,2-trifluoro-ethylsulfanylmethyl)-phenoxy]-4-ethyl-phenyl}-acetic acid], the IC50 at human DP2 receptor is below 0.3 µM.

For `COc1ccc(CC(=O)O)cc1Oc1ccc(NS(=O)(=O)c2cccc3c(N(C)C)cccc23)cc1CSC(C)(C)C` [Compound 72, {3-[2-tert-butylsulfanylmethyl-4-(5-dimethylamino-naphthalene-1-sulfonylamino)-phenoxy]-4-methoxy-phenyl}-acetic acid], the IC50 on human DP2 receptor lay within 0.3 to 1 µM.
